Laboratory results taken from patent publication US20040014676A1, “SRC kinase inhibitors useful for treating osteoporosis” (priority 2001, published 2004).

Target: T1, Src kinase (Homo sapiens, UniProt P12931)
T1 construct: purchased Upstate Bioteolnology (sic; Upstate Biotechnology); later HMR stock 27597-019E1 #14-117
Experiment: Phosphorylation assay of Src kinase inhibitors (radiometric, 96 well filter plate)
Assay type: biochemical
Details: duplicates, tested in the range of 400-0.098 µM; 10 µM peptide substrate (FIYGAFKKKKNH2), 5 µM unlabeled ATP, room temperature 30 min; read-out: IC50
Description: The present invention provides novel compounds of Formulae I through XVIII discussed above. The following compounds which fall within Formulae I through XVIII are characterized by structure, IUPAC name and activity using phosphorylation assay for protein tyrosine Src kinase.
Phosphorylation Assay of Src Kinase Inhibitors
The activity of Src kinase was measured in a 96 well plate phosphorylation assay where the transfer of gamma phosphate from ATP to peptide substrate was measured radiometrically. […] Ki values were determined experimentally for some of the inhibitors. The phosphocellulose filter plates (Millipore catalog #MAPH NOB) were prewet prior to the phosphorylation assay by addition of 100 1 per well of 30 mM MES buffer+0.4 mg/ml BSA. After a 20-minute incubation, the buffer was removed completely via a Millipore vacuum manifold. The phosphorylation assay was then set up in the filter plates in a total volume per well of 60 1. The 60 1 consisted of compound (see concentration ranges above), a 1:100 dilution of Src kinase (originally Upstate Bioteolnology, #14-117; later HMR stock 27597-019E1) or assay buffer alone (for no enzyme control wells), 10 M peptide substrate (FIYGAFKKKKNH2), 5 M unlabeled ATP and a 1:500 dilution of P-ATP (New England Nuclear, catalog #NEG-602H, 2000 Ci/mmol). The reaction was mixed and incubated at room temperature for 30 min. The kinase reactions were stopped by addition of 150 mM H3PO4 and incubated for 10 minutes. The filter plate wells were filtered and washed seven times with 200 1 per well of 150 mM H3PO4. Finally, the filter plate was placed into a Packard plate adapter (Packard catalog #600517B), 35 1 of Microscint-20 (Packard catalog #6013621) was added to each well, the plate was sealed (TopSeal A sealers; Packard catalog #6005185) and counted on a Packard TopCount.

| Compound | IC50 |
| --- | --- |
| NC(=O)CNC(=O)c1cc2ccccc2cc1OCCCCNC(=O)[C@@H](N)Cc1ccc(Br)cc1 [Example 61, 3-[4-[[[1-OXO-2(S)-AMINO-3(4- BROMOPHENYL)]PROPYL]AMINO]- BUTOXY]-NAPHTHALENE-2-(N- ACETAMIDO)CARBOXAMIDE] | 0.5 µM |
| NC(=O)CNC(=O)c1cc2ccccc2cc1OCCCCNC(=O)[C@@H](N)C(c1ccccc1)c1ccccc1 [Example 39, 3-[[4-[(2(S)-AMINO-3,3-BISPHENYL-1- OXO)PROPYL]AMINO]BUTOXY]- NAPHTHALENE-2-(N-ACETAMIDO)- CARBOXAMIDE] | 1.7 µM |
| NC(=O)CNC(=O)c1cc2cc(Br)ccc2c(Br)c1OCCCCNC(=O)[C@@H](N)Cc1ccc(O)cc1 [Example 105, 1,6-DIBROMO-2-[[4-[[1-OXO-2(S)- AMINO-3-(4-HYDROXYPHENYL)]- PROPYL]AMINO]BUTOXY]- NAPHTHALENE-3-(N-ACETAMIDO)- CARBOXAMIDE] | 20 µM |
| NC(=O)CNC(=O)c1cc2ccccc2cc1OCCCCNC(=O)[C@@H](N)Cc1ccc(Cl)cc1 [Example 42, 3-[[4-[(2(S)-AMINO-3-(4-CHLORO- PHENYL)-1-OXO)PROPYL]AMINO]- BUTOXY]-NAPHTHALENE-2- (N-ACETAMIDO)CARBOXAMIDE] | 0.88 µM |
| C[N+](C)(C)[C@@H](Cc1ccccc1)C(=O)NCCCCOc1cc2ccccc2cc1C(=O)NCC(N)=O [Example 69] | 14 µM |
| 3-[4-[[2(S)-AMINO-3-(4-HYDROXY- PHENYL)-1-OXOPROPYL]AMINO]- ETHOXY]-2-[N-ACETAMIDO]- NAPHTHALENECARBOXAMIDE [Example 23] | 3.4 µM |
| NC(=O)CNC(=O)c1cc2ccccc2cc1OCCCCNC(=O)[C@H](N)CSCc1ccccc1 [Example 63, 3-[4-[[[1-OXO-2(S)-AMINO- 3(BENZYLMERCAPTO)]PROPYL]- AMINO]BUTOXY]-NAPHTHALENE-2- (N-ACETAMIDO)CARBOXAMIDE] | 2.23 µM |
| NC(=O)CNC(=O)c1cc2ccccc2cc1OCCCCNC(=O)[C@@H](N)Cc1cccc2ccccc12 [Example 57, 3-[4-[[[2(S)-AMINO-3-(NAPHTH-1-YL)-1- OXO]PROPYL]AMINO]BUTOXY]- NAPHTHALENE-2-(N-ACETAMIDO)- CARBOXAMIDE] | 0.37 µM |
| 3-[[[2(S)-AMINO-3-(4-HYDROXY- PHENYL)-1-OXO]PROPYL]AMINO]- BUTOXY]NAPHTHALENE-2-[N- [(AMIDO)[2-(INDOL-3-YL)METHYL]- METHYL]CARBOXAMIDE [Example 29] | 60 µM |
| NC(=O)CNC(=O)c1cc2ccccc2cc1OCCCCNC(=O)C1NCCC1c1ccc(O)cc1 [Example 21, 3-[N-[[[(3-(R)4-HYDROXYPHENYL)- TETRAHYDROPYRROL-2-YL]- CARBONYL]AMINO]BUTOXY]- NAPHTHALENE-2-[N-(2- AMIDOMETHYL)]CARBOXAMIDE] | 4.6 µM |
| C[C@@H](NC(=O)c1cc2ccccc2cc1OCCCCNC(=O)[C@H](N)Cc1ccc(O)cc1)C(N)=O (stereo in doubt) [Example 122, 2-[[4-[[1-OXO-2-AMINO-3-(4-HYDROXY- PHENYL)]PROPYL]AMINO] BUTOXY]- NAPHTHALENE-3-[N-[1(S)-METHYL-2- OXO-2-AMINO)ETHYL]ACETAMIDO]- CARBOXAMIDE] | 12 µM |
| NCCCCOc1cc2ccccc2cc1C(=O)NCC(N)=O [Example 26, 3-(4-AMINOBUTOXY)-NAPHTHALENE- 2-[N-ACETAMIDO]CARBOXAMIDE] | 25 µM |
| CC(C)C[C@H](N)C(=O)NCCCCOc1cc2ccccc2cc1C(=O)NCC(N)=O [Example 15, 3-[4-[[2(S)-AMINO-3-(ISOPROPYL)-1- OXOPROPYL]AMINO]BUTOXY]- NAPHTHALENE-2-[N-(2- AMIDOMETHYL)]CARBOXAMIDE] | 4.8 µM |
| NC(=O)CNC(=O)c1cc2ccccc2cc1NC(=O)CCCNC(=O)[C@@H](N)Cc1ccc(O)cc1 [Example 34, 3-[[[[[[2(S)-AMINO-3-(4-HYDROXY- PHENYL)-1-OXO]PROPYL]AMINO]- PROPYL]CARBONYL] AMINO]- NAPHTHALENE-2-(N-ACETAMIDO)- CARBOXAMIDE] | 252 µM |
| NC(=O)CNC(=O)c1cc2ccccc2cc1NCCCCNC(=O)[C@H](N)Cc1ccc(O)cc1 (stereo in doubt) [Example 123] | 25 µM |
| NC(=O)CNC(=O)c1cc2ccccc2cc1OCCCCNC(=O)[C@@H](N)Cc1ccc(O)c(I)c1 [Example 46, 3-[[4-[[2(S)-AMINO-3(3-IODO-4- HYDROXYPHENYL)-1-OXO]PROPYL]- AMINO]BUTOXY]-NAPHTHALENE-2- (N-ACETAMIDO)CARBOXAMIDE] | 0.31 µM |
| NC(=O)CNC(=O)c1cc(-c2ccccc2)ccc1OCCCCNC(=O)C(N)Cc1ccc(O)cc1 (stereo in doubt) [Compound 144, (2S)-2-amino-N-(4-{2-[N-(carbamoylmethyl)carbamoyl]-4-phenylphenoxy}butyl)-3-(4-hydroxyphenyl)propanamide] | 30 µM |
| NC(=O)CNC(=O)c1cc2ccccc2cc1NC(=O)CCCNC(=O)[C@@H](N)Cc1ccc(O)cc1 [Example 90, 3-[[[3-[[[1-OXO-2(S)-AMINO-3- HYDROXYPHENYL)]PROPYL]AMINO]- PROPYL]CARBONYL]AMINO]- NAPHTHALENE-2-ACETAMIDO)- CARBOXAMID] | 209 µM |
| NC(=O)CNC(=O)c1cc2ccccc2cc1OCCCCNC(=O)[C@@H](N)Cc1ccc2ccccc2c1 [Example 13, 3-[4-[[2(S)-AMINO-3-(NAPTHYL-2-YL)-1- OXOPROPYL]AMINO]BUTOXY]- NAPHTHALENE-2-[N-(2- AMIDOMETHYL)]CARBOXAMIDE] | 0.45 µM |
| NC(=O)Cc1nc(-c2cc3ccccc3cc2OCCCCNC(=O)[C@@H](N)Cc2csc3ccccc23)no1 [Compound 156, (2S)-2-amino-3-benzo[b]thiophen-3-yl-N-(4-{3-[5-(carbamoylmethyl)(1,2,4-oxadiazol-3-yl)](2-naphthyloxy)}butyl)propanamide] | 20 µM |
| N[C@@H](Cc1ccc(O)cc1)C(=O)NCCCCOc1cc2ccccc2cc1C(=O)NCCO [Example 101, 3-[[4-[[1-OXO-2(S)-AMINO-3-(4- HYDROXYPHENYL)]PROPYL]AMINO]- BUTOXY]NAPHTHALENE-2-[N- (2-HYDROXYETHYL)]CARBOXAMIDE] | 15 µM |
| C=CCOC(=O)C(CCCOc1cc2ccccc2cc1C(=O)NCC(N)=O)NC(=O)[C@H](N)Cc1csc2ccccc12 (stereo partly drawn) [Example 98, 3-[[4-[[1-OXO-2(S)-AMINO-3-(BENZO- THIOPHEN-3-YL)]PROPYL]AMINO][4- ACRYLOXYCARBOXY]BUTOXY]NAPHTHALENE-2-(N-ACETAMIDO)- CARBOXAMIDE] | 2.5 µM |
| 3-[[[4-[[[1-OXO-2(S)-AMINO-3- HYDROXYPHENYL)]PROPYL]AMINO]- BUTYL]CARBONYL]AMINO]- NAPHTHALENE-2-ACETAMIDO)- CARBOXAMIDE [Example 91] | 209 µM |
| C[C@H](c1ccc(O)cc1)[C@H](N)C(=O)NCCCCOc1cc2ccccc2cc1C(=O)NCC(N)=O [Example 78, 3-[4-[[[(1-OXO-2-AMINO-3(R)-METHYL- 3-(4-HYDROXY)PHENYL)]PROPYL]- AMINO]BUTOXY]-NAPHTHALENE-2- (N-ACETAMIDO)CARBOXAMIDE] | 6 µM |
| NC(=O)CNC(=O)c1cc2ccccc2cc1OCCCNC(=O)[C@@H](N)Cc1ccc(O)cc1 [Example 93, 3-[5-[[[1-OXO-2(S)-AMINO-3-(4- HYDROXYPHENYL)]PROPYL]AMINO]- PROPYLOXY]NAPHTHALENE-2-(N- ACETAMIDO)CARBOXAMIDE] | 45 µM |
| N=C(N)N[C@@H](Cc1ccc(O)cc1)C(=O)NCCCCOc1cc2ccccc2cc1C(=O)NCC(N)=O [Example 73, 3-[4-[[[(1-OXO-2-[(N-AMINOIMINO- METHYL)(S)AMINO]-3-(4-HYDROXY- PHENYL)]PROPYL]AMINO]BUTOXY]- NAPHTHALENE-2-(N-ACETAMIDO)- CARBOXAMIDE] | 6 µM |
| NC(=O)CNC(=O)c1cc2ccccc2cc1OCCCCNC(=O)[C@@H](N)Cc1ccccc1 [Example 14, 3-[4-[[2(S)-AMINO-3-(PHENYL)-1- OXOPROPYL]AMINO]BUTOXY]- NAPHTHALENE-2-[N-(2- AMIDOMETHYL)]CARBOXAMIDE] | 0.98 µM |
| 3-[[4-[[1-OXO-2(S)-AMINO-3-(4- HYDROXYPHENYL)]PROPYL]AMINO]BUTOXY]-7-METHOXY- NAPHTHALENE-2-[N-[[(3-HYDROXY- PROPYLAMINO)-CARBONYL]- METHYL]]CARBOXAMIDE [Example 118] | 47 µM |
| NCCCCC(NC(=O)c1cc2ccccc2cc1OCCCCNC(=O)[C@@H](N)Cc1ccc(O)cc1)C(N)=O (stereo partly drawn) [Example 8, 3-[4-[[2(S)-AMINO-3-(4-HYDROXY- PHENYL)-1-OXOPROPYL]AMINO]- BUTOXY]-NAPHTHALENE-2-[N-[[(4- AMINOBUTYL)(AMIDO)]METHYL]- ACETAMIDO]CARBOXAMIDE] | 348 µM |
| N[C@@H](Cc1ccc(O)cc1)C(=O)NCCCOc1cc2ccccc2cc1C(=O)NCC(=O)NCCCO [Example 7, 3-[3-[[2(S)-AMINO-3-(4-HYDROXY- PHENYL)-1-OXOPROPYL]AMINO]- PROPOXY]-N-[2-[(3-HYDROXY- PROPYL)AMINO]-2-OXOETHYL]-2- NAPHTHALENECARBOXAMIDE] | 45 µM |
